Assay results as given in publication PMC3320615, “β-Microseminoprotein Endows Post Coital Seminal Plasma with Potent Candidacidal Activity by a Calcium- and pH-Dependent Mechanism” (PLoS Pathogens, 2012).

Tests used:
[1] = test system: Candida albicans ATCC 90028; assay: CFU assay with C. albicans; assay type: cell-based; conditions: for Estimate (difference between means of log values): control - treatment
Excerpt: Candida albicans strains: ATCC 90028, CAF-1-2, SC5814, BM4f35II68, vaginal clinical isolates from Dept. of Clincal Microbiology, Skåne University Hospital, SO_303369 and SO_503471. Candida parapsilosis strains: ATCC 90018, BD1800, BD17837, and BM24/68/09. Candida glabrata strains: ATCC 90030, clinical isolates from Dept. of Clincal Microbiology, Skåne University Hospital, SO_3336, SO_3400 and SO_503413. All strains were inoculated from frozen culture and grown in Yeast extract-Peptone-Dextrose (YPD) (Sigma) and on Sabourand Dextrose Broth (SAB) (Difco) plates at 30°C with 5% (v/v) CO2. If not otherwise stated, ATCC 90028 was used for candidacidal experiments.
Candida albicans was grown over night, washed, and resuspended in 10 mM Tris, 5 mM glucose, pH 7.4 or pH 4. Approximately 4×10^3 to 10^4 CFU of C. albicans were incubated with the test substance in low or neutral pH buffer for 4 h at 37°C. After incubation, the suspension was diluted and plated. Colonies were counted after two days incubation of the plates at 30°C. Bacteria from overnight cultures were inoculated in fresh medium and grown for 3 h, washed in 10 mM Tris, 5 mM glucose pH 7.4. Approximately 8×10^4 CFU were incubated with sample in 10 mM Tris, 5 mM glucose pH 7.4 or pH 4 for 1 h at 37°C, diluted, plated and incubated over night at 37°C and the colonies counted.
Statistical analysis was performed using SAS 9.2 software (SAS Institute, Cary, NC). Colony counts were log transformed. In order to choose the statistical method, interactions between the Treatment and Experiment were investigated. Treatments were screened by doing pair wise comparisons of each treatment to a control. Statistical tests used for the comparisons included MIXED procedure and LSMEANS statement. All tests where P-value<.05 were considered to indicate statistical significance. P-values were not adjusted for the multiple comparisons.
“Estimate” is the estimate of the difference between means of log values of treatment 1 and treatment 2

[2] = Liposome leakage (carboxyfluorescein release); assay type: biochemical; conditions: control experiments with EDTA alone
Method: Subsequently, buffer (10 mM Tris, pH 7.4) was added together with 0.1 M carboxyfluorescein (CF) (Sigma, St Louis, MO). After hydration, the lipid mixture was subjected to eight freeze-thaw cycles consisting of freezing in liquid nitrogen and heating to 60°C. Unilamellar liposomes of about Ø140 nm were generated by multiple extrusions through polycarbonate filters (pore size 100 nm) mounted in a […] (Avestin, Ottawa, Canada) at 22°C. Untrapped CF was then removed by two gel filtrations (Sephadex G-50) at 22°C, with Tris buffer as eluent. CF release was determined by monitoring the emitted fluorescence at 520 nm from liposome dispersions (10 mM lipid in 10 mM Tris). An absolute leakage scale was obtained by disrupting the liposomes at the end of the experiment through addition of 0.8 mM Triton X100 (Sigma, St Louis, MO), causing 100% release and dequenching of CF. Although calcein is frequently used for pH-dependent leakage studies, the high charge of this dye has been noted to influence its leakage behavior in the presence of highly cationic peptides. Instead, therefore, CF was used as a leakage marker at both pH 6.0 and 7.4, avoiding pH-dependent fluorescence effects through neutralization prior to probing the limiting leakage in case of pH 6.0 leakage. Throughout, a SPEX-fluorolog 1650 0.22-m double spectrometer (SPEX Industries, Edison, NJ) was used for the liposome leakage assay. Measurements were performed in at least triplicate at 37°C.

C. albicans = assay: Antifungal gel overlay assay (AU-PAGE); assay type: cell-based, Candida albicans
Method: Gel overlay assay was performed essentially as described. Briefly, duplicate samples were run on native Acid Urea (AU-PAGE) gels in 5% (v/v) acetic acid at 100 V for 1 h 20 min. Candida albicans was grown over night, washed and resuspended in 10 mM NaPO4 pH 7.4 and approximately 1×10^5 CFU were added to 12 ml melted underlay agarose (10 mM NaPO4, pH 7.4, 0.03% SAB, 1% agarose type 1 (Sigma, St. Louis, MO)) and poured into a square Petri dish. One AU-gel was stained with Coomassie brilliant blue and one AU gel was washed 3×4 min in 10 mM NaPO4, pH 7.4 and then placed on top of the agarose and incubated for 4 h at 37°C. The AU gel was then removed and an overlay agarose (6% SAB, 1% agarosetype 1 (Sigma)) was poured on top of the underlay and incubated over night at 30°C. To make the clearing zones more visible, the agarose was stained with Coomassie brilliant blue followed by destaining.

[3] = 5 µM, pH 4, with EDTA, experiment 1
[4] = 5 µM, pH 4, with EDTA, experiment 2
[5] = 5 µM, pH 4, with EDTA, experiment 3
[6] = 5 µM, pH 4, without EDTA, experiment 1
[7] = 5 µM, pH 4, without EDTA, experiment 2
[8] = 5 µM, pH 4, without EDTA, experiment 3

## O=C(O)CN(CCN(CC(=O)O)CC(=O)O)CC(=O)O [EDTA, reference compound]
[1]; 25 µM, pH 4, experiment 1
  Estimate (difference between means of log values): 0.3309
[1]; 25 µM, pH 4, experiment 2
  Estimate (difference between means of log values): -0.2077
[1]; 25 µM, pH 4, experiment 3
  Estimate (difference between means of log values): -0.01878
[2]
  Liposome rupture: no liposome rupture

## EISCCTLVSTPVGYDKDNCQ [MSP4, synthetic MSP-derived peptide]
[1]; [3]
  Estimate (difference between means of log values): -0.3731
[1]; [4]
  Estimate (difference between means of log values): -0.4012
[1]; [5]
  Estimate (difference between means of log values): -0.1411
[1]; [6]
  Estimate (difference between means of log values): -0.5304
[1]; [7]
  Estimate (difference between means of log values): -0.8100
[1]; [8]
  Estimate (difference between means of log values): -0.2155

## EWQTDNCETCTCYETEISCC [MSP3, synthetic MSP-derived peptide]
[1]; [3]
  Estimate (difference between means of log values): 0.09392
[1]; [4]
  Estimate (difference between means of log values): 0.05166
[1]; [5]
  Estimate (difference between means of log values): -0.02824
[1]; [6]
  Estimate (difference between means of log values): -0.2487
[1]; [7]
  Estimate (difference between means of log values): -0.7316
[1]; [8]
  Estimate (difference between means of log values): -0.09956

## IVVEKKDPKKTCSVSEWII [MSP6, synthetic MSP-derived peptide]
[1]; [3]
  Estimate (difference between means of log values): 1.6087
[1]; [4]
  Estimate (difference between means of log values): 3.2325
[1]; [5]
  Estimate (difference between means of log values): 0.6931
[1]; [6]
  Estimate (difference between means of log values): -0.00322
[1]; [7]
  Estimate (difference between means of log values): 0.07848
[1]; [8]
  Estimate (difference between means of log values): 0.9139

## KDNCQRIFKKEDCKYIVVEK [MSP5, synthetic MSP-derived peptide encompassing residues 61–80]
[1]; 5 µM, pH 4
  Fungicidal activity in CFU assay (rank among overlapping peptides): highest fungicidal activity of the tested peptides
[1]; [3]
  Estimate (difference between means of log values): 2.0492
[1]; [4]
  Estimate (difference between means of log values): 4.5365
[1]; [5]
  Estimate (difference between means of log values): 3.0952
[1]; [6]
  Estimate (difference between means of log values): 0.5704
[1]; [7]
  Estimate (difference between means of log values): 0.3334
[1]; [8]
  Estimate (difference between means of log values): 0.6913

## LL-37 [reference compound]
[1]; 50 µM LL-37, pH 4, + 50 µM calcium, experiment 1
  Estimate (difference between means of log values): 1.6956
[1]; 50 µM LL-37, pH 4, + 50 µM calcium, experiment 2
  Estimate (difference between means of log values): 1.8880
[1]; 50 µM LL-37, pH 4, + 75 µM calcium, experiment 1
  Estimate (difference between means of log values): 1.5909
[1]; 50 µM LL-37, pH 4, + 75 µM calcium, experiment 2
  Estimate (difference between means of log values): 1.5305
[1]; 50 µM LL-37, pH 4, + 100 µM calcium, experiment 1
  Estimate (difference between means of log values): 1.3942
[1]; 50 µM LL-37, pH 4, + 100 µM calcium, experiment 2
  Estimate (difference between means of log values): 1.4384
[1]; 50 µM LL-37, pH 4, + 200 µM calcium, experiment 1
  Estimate (difference between means of log values): 1.3064
[1]; 50 µM LL-37, pH 4, + 200 µM calcium, experiment 2
  Estimate (difference between means of log values): 1.4253
[1]; 50 µM LL-37, pH 4, no calcium, experiment 1
  Estimate (difference between means of log values): 1.6339
[1]; 50 µM LL-37, pH 4, no calcium, experiment 2
  Estimate (difference between means of log values): 2.4025
[1]; 50 µM LL-37, pH 7.4, + 50 µM calcium, experiment 1
  Estimate (difference between means of log values): 2.0757
[1]; 50 µM LL-37, pH 7.4, + 50 µM calcium, experiment 2
  Estimate (difference between means of log values): 2.0565
[1]; 50 µM LL-37, pH 7.4, + 50 µM calcium, experiment 3
  Estimate (difference between means of log values): 2.6878
[1]; 50 µM LL-37, pH 7.4, + 75 µM calcium, experiment 1
  Estimate (difference between means of log values): 1.1627
[1]; 50 µM LL-37, pH 7.4, + 75 µM calcium, experiment 2
  Estimate (difference between means of log values): 2.6753
[1]; 50 µM LL-37, pH 7.4, + 75 µM calcium, experiment 3
  Estimate (difference between means of log values): 2.9703
[1]; 50 µM LL-37, pH 7.4, + 100 µM calcium, experiment 1
  Estimate (difference between means of log values): 1.6404
[1]; 50 µM LL-37, pH 7.4, + 100 µM calcium, experiment 2
  Estimate (difference between means of log values): 2.5186
[1]; 50 µM LL-37, pH 7.4, + 100 µM calcium, experiment 3
  Estimate (difference between means of log values): 2.6194
[1]; 50 µM LL-37, pH 7.4, + 200 µM calcium, experiment 1
  Estimate (difference between means of log values): 1.4145
[1]; 50 µM LL-37, pH 7.4, + 200 µM calcium, experiment 2
  Estimate (difference between means of log values): 2.7659
[1]; 50 µM LL-37, pH 7.4, + 200 µM calcium, experiment 3
  Estimate (difference between means of log values): 3.5282
[1]; 50 µM LL-37, pH 7.4, no calcium, experiment 1
  Estimate (difference between means of log values): 3.2986
[1]; 50 µM LL-37, pH 7.4, no calcium, experiment 2
  Estimate (difference between means of log values): 3.2280
[1]; 50 µM LL-37, pH 7.4, no calcium, experiment 3
  Estimate (difference between means of log values): 4.0296

## RKCMDLKGNKHPINSEWQTD [MSP2, synthetic MSP-derived peptide]
[1]; [3]
  Estimate (difference between means of log values): 0.5727
[1]; [4]
  Estimate (difference between means of log values): 0.2951
[1]; [5]
  Estimate (difference between means of log values): 0.5877
[1]; [6]
  Estimate (difference between means of log values): -0.4638
[1]; [7]
  Estimate (difference between means of log values): -0.7678
[1]; [8]
  Estimate (difference between means of log values): 0.2466

## SCYFIPNEGVPGDSTRKCMD [MSP1, synthetic MSP-derived peptide]
[1]; [3]
  Estimate (difference between means of log values): -0.3564
[1]; [4]
  Estimate (difference between means of log values): -0.5558
[1]; [5]
  Estimate (difference between means of log values): -0.1369
[1]; [6]
  Estimate (difference between means of log values): -0.6949
[1]; [7]
  Estimate (difference between means of log values): -0.6938
[1]; [8]
  Estimate (difference between means of log values): -0.2057

## TNKCQKILNKKTCTYTVVEK [PMSP, peptide from porcine MSP corresponding to human MSP61–80]
[1]; data not shown
  Effect of calcium and magnesium on antifungal activity: inhibited by calcium but not magnesium
[1]; pH 4, with and without EDTA, Figure S4
  Fungicidal activity compared with human MSP61–80: even higher fungicidal activity than its human counterpart
[1]; pH 4, with and without EDTA, three independent experiments
  Difference of mean colony counts between control and treatment: Significant difference (reduction)

## prostate specific antigen: major protein from the prostate [reference compound]
C. albicans
  Clearing zone in antifungal gel overlay assay: did not give rise to clearing zones
